From patent US12275712B2, “Triterpene derivatives as HIV inhibitors” (HETERO LABS LIMITED, priority 2019, dated 2025)
Where two headings read alike, the source gives them in different places.

Columns and labels:
pNL4-3 V7A = experiment: Antiviral activity against pNL4-3 V7A strain in MT4 cells (p24 estimation); format: cell-based, HIV-1; settings: Human immunodeficiency virus 1, MT4, 96 h, read-out: pNL4-3 V7A IC50
Protocol: (§1) MT4 cells were Transfected with HIV-1 Plasmid (pNL4-3-WT & V7A) (Cells were incubating with required number of TCID50 of HIV-1 for 1.5 h at 37° C.). After infection, the infected cells were plated at the concentration of 3×10^4 cells per well in 96 well plate. Test compound was added to the test plate in defined format with the final concentration of DMSO is not more than 1%. Incubation was carried out in CO2 incubator for 4 days for viral infection. At the end of incubation period an aliquot from each well was taken for p24 estimation. p24 estimation was carried out using Advance biosciences kit as per the procedure detailed by supplier.

pNL4-3 WT = experiment: Antiviral activity against pNL4-3 WT strain in MT4 cells (p24 estimation); format: cell-based, HIV-1; settings: Human immunodeficiency virus 1, MT4, 96 h, read-out: pNL4-3 WT IC50
Protocol: as §1

HIV-1 strain 92HT599 = experiment: Antiviral activity against HIV-1 strain 92HT599 in MT2 cells (p24 estimation); format: cell-based
Protocol: MT2 cells were infected with HIV-1 strain 92HT599 (10 TCID 50/30000 cells). The infected cells were plated at the concentration of ˜30,000 cells per well in 96 well plate. Test compound was added to the micro plate in defined format with the final concentration of DMSO (vehicle) is not more than 1%. Incubation was carried out in CO2 incubator for ˜96 hours for viral infection. At the end of incubation period an aliquot from each well was taken for p24 estimation. The quantitation of p24 is an index for antiviral activity of the compound. Percent inhibition was calculated with reference to control values (vehicle controls). p24 estimation was carried out using Advance biosciences kit as per the procedure detailed by supplier.
The IC50 (nM) values are set forth in below Table-1.

[1] = Human immunodeficiency virus 1, HIV-1 strain 92HT599, MT2 cells, ~96 hours, p24, read-out: IC50

SMILES | IC50 (pNL4-3 V7A) [nM] | IC50 (pNL4-3 WT) [nM] | IC50 (HIV-1 strain 92HT599; [1]) [nM] | IC50 (HIV-1 strain 92HT599; Human immunodeficiency virus 1, MT2, 96 h) [nM]
CC(C)[C@@H](CN[C@]12CC[C@@H](C3(C)CC3)[C@@H]1[C@H]1CC[C@@H]3[C@@]4(C)CC[C@H](OC(=O)[C@H]5C[C@@H](C(=O)O)C5(C)C)C(C)(C)[C@@H]4CC[C@@]3(C)[C@]1(C)CC2)N1CCS(=O)(=O)CC1 [Example 6, (1R,3S)-3-((((1R,3aS,5aR,5bR,7aR,9S,11aR,11bR,13aR,13bR)-3a-(((S)-2-(1,1-dioxidothiomorpholino)-3-methylbutyl)amino)-5a,5b,8,8,11a-pentamethyl-1-(1-methylcyclopropyl)icosahydro-1H-cyclopentachrysen-9-yl)oxy)carbonyl)-2,2-dimethylcyclobutane-1-carboxylic acid] | 1 to 50 | 10 to 50 | < 10 | 
C=C(C)[C@@H]1CC[C@]2(NC[C@H]([C@@H](C)OC(=O)COCCOC)N3CCS(=O)(=O)CC3)CC[C@]3(C)[C@H](CC[C@@H]4[C@@]5(C)CC[C@H](OC(=O)[C@H]6C[C@@H](C(=O)O)C6(C)C)C(C)(C)[C@@H]5CC[C@]43C)[C@@H]12 [Example 19, (1R,3S)-3-((((1R,3aS,5aR,5bR,7aR,9S,11aR,11bR,13aR,13bR)-3a-(((2R,3R)-2-(1,1-dioxidothiomorpholino)-3-(2-(2-methoxyethoxy)acetoxy)butyl)amino)-5a,5b,8,8,11a-pentamethyl-1-(prop-1-en-2-yl)icosahydro-1H-cyclopentachrysen-9-yl)oxy)carbonyl)-2,2-dimethylcyclobutane-1-carboxylic acid] | 1 to 50 | < 10 | < 10 | 
C[C@@H](O)[C@@H](CN[C@]12CC[C@@H](C3(C)CC3)[C@@H]1[C@H]1CC[C@@H]3[C@@]4(C)CC[C@H](OC(=O)[C@H]5C[C@@H](C(=O)O)C5(C)C)C(C)(C)[C@@H]4CC[C@@]3(C)[C@]1(C)CC2)N1CCS(=O)(=O)CC1 [Example 7, (1R,3S)-3-((((1R,3aS,5aR,5bR,7aR,9S,11aR,11bR,13aR,13bR)-3a-(((2R,3R)-2-(1,1-dioxidothiomorpholino)-3-hydroxybutyl)amino)-5a,5b,8,8,11a-pentamethyl-1-(1-methylcyclopropyl)icosahydro-1H-cyclopentachrysen-9-yl)oxy)carbonyl)-2,2-dimethylcyclobutane-1-carboxylic acid] | 1 to 50 | < 10 | < 10 | 
CC1([C@@H]2CC[C@]3(NC[C@H](CO)N4CCS(=O)(=O)CC4)CC[C@]4(C)[C@H](CC[C@@H]5[C@@]6(C)CC[C@H](OC(=O)[C@H]7C[C@@H](C(=O)O)C7(C)C)C(C)(C)[C@@H]6CC[C@]54C)[C@@H]23)CC1 [Example 5, (1R,3S)-3-((((1R,3aS,5aR,5bR,7aR,9S,11aR,11bR,13aR,13bR)-3a-(((R)-2-(1,1-dioxidothiomorpholino)-3-hydroxypropyl)amino)-5a,5b,8,8,11a-pentamethyl-1-(1-methylcyclopropyl)icosahydro-1H-cyclopenta[a]chrysen-9-yl)oxy)carbonyl)-2,2-dimethylcyclobutane-1-carboxylic acid] | 1 to 50 | < 10 | < 10 | 
C[C@@H](CN[C@]12CC[C@@H](C3(C)CC3)[C@@H]1[C@H]1CC[C@@H]3[C@@]4(C)CC[C@H](OC(=O)[C@H]5C[C@@H](C(=O)O)C5(C)C)C(C)(C)[C@@H]4CC[C@@]3(C)[C@]1(C)CC2)N1CCS(=O)(=O)CC1 [Example 2, (1R,3S)-3-((((1R,3aS,5aR,5bR,7aR,9S,11aR,11bR,13aR,13bR)-3a-(((S)-2-(1,1-dioxidothiomorpholino)propyl)amino)-5a,5b,8,8,11a-pentamethyl-1-(1-methylcyclopropyl)icosahydro-1H-cyclopentachrysen-9-yl)oxy)carbonyl)-2,2-dimethyl cyclobutane-1-carboxylic acid] | 1 to 50 | < 10 | < 10 | 
CC1([C@@H]2CC[C@]3(NC[C@@H](CO)N4CCS(=O)(=O)CC4)CC[C@]4(C)[C@H](CC[C@@H]5[C@@]6(C)CC[C@H](OC(=O)[C@H]7C[C@@H](C(=O)O)C7(C)C)C(C)(C)[C@@H]6CC[C@]54C)[C@@H]23)CC1 [Example 8, (1R,3S)-3-((((1R,3aS,5aR,5bR,7aR,9S,11aR,11bR,13aR,13bR)-3a-(((S)-2-(1,1-dioxidothiomorpholino)-3-hydroxypropyl)amino)-5a,5b,8,8,11a-pentamethyl-1-(1-methylcyclopropyl)icosahydro-1H-cyclopenta[a]chrysen-9-yl)oxy)carbonyl)-2,2-dimethylcyclobutane-1-carboxylic acid] | 1 to 50 | < 10 | < 10 | 
C=C(C)[C@@H]1CC[C@]2(NC[C@H]([C@@H](C)O)N3CCS(=O)(=O)CC3)CC[C@]3(C)[C@H](CC[C@@H]4[C@@]5(C)CC[C@H](OC(=O)[C@H]6C[C@@H](C(=O)O)C6(C)C)C(C)(C)[C@@H]5CC[C@]43C)[C@@H]12 [Example 15, (1R,3S)-3-((((1R,3aS,5aR,5bR,7aR,9S,11aR,11bR,13aR,13bR)-3a-(((2R,3R)-2-(1,1-dioxidothiomorpholino)-3-hydroxybutyl)amino)-5a,5b,8,8,11a-pentamethyl-1-(prop-1-en-2-yl)icosahydro-1H-cyclopenta[a]chrysen-9-yl)oxy)carbonyl)-2,2-dimethylcyclobutane-1-carboxylic acid] | 1 to 50 | < 10 | < 10 | 
CC1([C@@H]2CC[C@]3(NC[C@H](CO[Si](C)(C)C(C)(C)C)N4CCS(=O)(=O)CC4)CC[C@]4(C)[C@H](CC[C@@H]5[C@@]6(C)CC[C@H](OC(=O)[C@H]7C[C@@H](C(=O)O)C7(C)C)C(C)(C)[C@@H]6CC[C@]54C)[C@@H]23)CC1 [Example 4, (1R,3S)-3-((((1R,3aS,5aR,5bR,7aR,9S,11aR,11bR,13aR,13bR)-3a-(((R)-3-((tert-butyldimethylsilyl)oxy)-2-(1,1-dioxidothiomorpholino)propyl)amino)-5a,5b, 8,8,11a-pentamethyl-1-(1-methylcyclopropyl)icosahydro-1H-cyclopenta[a]chrysen-9-yl)oxy)carbonyl)-2,2-dimethylcyclobutane-1-carboxylic acid] | > 100 | > 50 |  | 10 to 20
CC1([C@@H]2CC[C@]3(NC[C@H](C(=O)O)N4CCS(=O)(=O)CC4)CC[C@]4(C)[C@H](CC[C@@H]5[C@@]6(C)CC[C@H](OC(=O)[C@H]7C[C@@H](C(=O)O)C7(C)C)C(C)(C)[C@@H]6CC[C@]54C)[C@@H]23)CC1 [Example 16, (1R,3S)-3-((((1R,3aS,5aR,5bR,7aR,9S,11aR,11bR,13aR,13bR)-3a-(((R)-2-carboxy-2-(1,1-dioxidothiomorpholino)ethyl)amino)-5a,5b,8,8,11a-pentamethyl-1-(1-methylcyclopropyl)icosahydro-1H-cyclopenta[a]chrysen-9-yl)oxy)carbonyl)-2,2-dimethylcyclobutane-1-carboxylic acid] | > 100 | > 50 | 10 to 20 | 
CC1([C@@H]2CC[C@]3(NC[C@@H](CF)N4CCS(=O)(=O)CC4)CC[C@]4(C)[C@H](CC[C@@H]5[C@@]6(C)CC[C@H](OC(=O)[C@H]7C[C@@H](C(=O)O)C7(C)C)C(C)(C)[C@@H]6CC[C@]54C)[C@@H]23)CC1 [Example 9, (1R,3S)-3-((((1R,3aS,5aR,5bR,7aR,9S,11aR,11bR,13aR,13bR)-3a-(((S)-2-(1,1-dioxidothiomorpholino)-3-fluoropropyl)amino)-5a,5b,8,8,11a-pentamethyl-1-(1-methylcyclopropyl)icosahydro-1H-cyclopentachrysen-9-yl)oxy)carbonyl)-2,2-dimethyl cyclobutane-1-carboxylic acid] | 50 to 100 | 10 to 50 | < 10 | 
CC(C)[C@H](CN[C@]12CC[C@@H](C3(C)CC3)[C@@H]1[C@H]1CC[C@@H]3[C@@]4(C)CC[C@H](OC(=O)[C@H]5C[C@@H](C(=O)O)C5(C)C)C(C)(C)[C@@H]4CC[C@@]3(C)[C@]1(C)CC2)N1CCS(=O)(=O)CC1 [Example 3, (1R,3S)-3-((((1R,3aS,5aR,5bR,7aR,9S,11aR,11bR,13aR,13bR)-3a-(((R)-2-(1,1-dioxidothiomorpholino)-3-methylbutyl)amino)-5a,5b,8,8,11a-pentamethyl-1-(1-methylcyclopropyl)icosahydro-1H-cyclopenta[a]chrysen-9-yl)oxy)carbonyl)-2,2-dimethyl cyclobutane-1-carboxylic acid] | > 100 | > 50 | > 20 | 
